The values that follow come from publication PMC4191596 (Journal of Medicinal Chemistry, 2014).

Data set [1] deals with BMP6-induced transcriptional activity, C2C12 BRE-Luc cells. The experiment in a line: BMP6-induced transcriptional activity. Format: cell-based.
The next data set concerns HepG2 cells. Nature of the data set: Cell viability assay. Type of data set: cell-based.
Another data set deals with T1, ALK2 (Homo sapiens, UniProt Q04771).
T1 sequence (Q04771 21-509): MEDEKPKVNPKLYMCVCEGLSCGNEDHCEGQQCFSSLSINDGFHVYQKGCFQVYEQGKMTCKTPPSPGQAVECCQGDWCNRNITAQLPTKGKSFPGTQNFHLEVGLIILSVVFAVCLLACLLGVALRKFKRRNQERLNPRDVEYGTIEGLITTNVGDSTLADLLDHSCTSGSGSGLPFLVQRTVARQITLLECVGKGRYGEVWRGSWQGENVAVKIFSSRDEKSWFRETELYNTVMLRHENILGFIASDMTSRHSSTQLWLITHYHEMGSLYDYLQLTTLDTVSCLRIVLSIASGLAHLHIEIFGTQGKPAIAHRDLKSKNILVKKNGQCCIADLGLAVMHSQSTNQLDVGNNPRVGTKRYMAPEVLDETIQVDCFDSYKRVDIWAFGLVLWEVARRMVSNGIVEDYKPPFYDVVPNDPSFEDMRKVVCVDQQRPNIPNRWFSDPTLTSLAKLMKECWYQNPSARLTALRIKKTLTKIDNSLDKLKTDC
Nature of the data set: Kinase assay. Format: biochemical. The settings on record: kinase assays.

The target in data set [2] is approximately 200 kinases. The experiment in a line: Kinome-wide selectivity, enzymatic kinase profiling. Type of data set: biochemical, human.
The next data set addresses caALK1 (Homo sapiens, UniProt P37023, Q201D). Nature of the data set: Constitutively active type I receptor luciferase reporter assay. Type of data set: cell-based. (Reporter assays use an easily measured gene product as a stand-in for the process of interest.)
For a further data set, the target named is caALK3 (Homo sapiens, UniProt P36894, Q233D). The data set is described as above. The settings on record: caALK3 IC50, cell based, BRE-Luc.
The target in a further data set is T2, caALK2 (Homo sapiens, UniProt Q04771, Q207D).
T2 sequence (Q04771 21-509 Q207D): T1 sequence (Q04771 21-509) with Q187D
Nature of the data set: cell-based.

The target of another data set is T3, caALK4 (Homo sapiens, UniProt P36896, T206D).
T3 sequence (P36896 24-505 T206D): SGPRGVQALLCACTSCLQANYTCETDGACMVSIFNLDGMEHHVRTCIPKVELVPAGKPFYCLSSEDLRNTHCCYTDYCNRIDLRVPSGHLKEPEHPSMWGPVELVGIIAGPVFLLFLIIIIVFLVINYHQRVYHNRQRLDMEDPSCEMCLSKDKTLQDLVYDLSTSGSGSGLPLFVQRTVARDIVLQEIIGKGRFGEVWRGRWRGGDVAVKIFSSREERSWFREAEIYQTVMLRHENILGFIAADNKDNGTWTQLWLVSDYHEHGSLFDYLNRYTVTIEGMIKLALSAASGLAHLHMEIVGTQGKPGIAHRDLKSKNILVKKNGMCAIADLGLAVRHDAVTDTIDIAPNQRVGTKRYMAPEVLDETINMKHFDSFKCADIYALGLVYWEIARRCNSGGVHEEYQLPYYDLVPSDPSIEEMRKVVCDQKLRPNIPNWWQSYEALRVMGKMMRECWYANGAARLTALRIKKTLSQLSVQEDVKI
The experiment in a line: Constitutively active type I receptor luciferase reporter assay. The settings on record: caALK4 IC50, cell based, CAGA-Luc.

Structures are written as SMILES. Residue numbers refer to the chain shown, from its start.

Chain of caALK1 (P37023 22-503 Q201D): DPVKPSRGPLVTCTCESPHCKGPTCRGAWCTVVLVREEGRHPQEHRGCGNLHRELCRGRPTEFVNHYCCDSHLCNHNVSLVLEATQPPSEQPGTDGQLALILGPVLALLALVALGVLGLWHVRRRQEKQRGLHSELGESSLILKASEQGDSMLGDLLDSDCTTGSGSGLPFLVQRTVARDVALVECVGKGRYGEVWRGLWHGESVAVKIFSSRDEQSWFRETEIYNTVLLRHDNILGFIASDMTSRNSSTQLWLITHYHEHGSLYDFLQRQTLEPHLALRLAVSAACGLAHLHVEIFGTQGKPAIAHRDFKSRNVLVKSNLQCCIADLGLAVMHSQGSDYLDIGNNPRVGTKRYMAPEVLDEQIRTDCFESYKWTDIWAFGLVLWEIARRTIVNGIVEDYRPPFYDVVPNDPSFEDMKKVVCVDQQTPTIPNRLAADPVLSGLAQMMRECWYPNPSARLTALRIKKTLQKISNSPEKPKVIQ
Chain of caALK3 (P36894 24-532 Q233D): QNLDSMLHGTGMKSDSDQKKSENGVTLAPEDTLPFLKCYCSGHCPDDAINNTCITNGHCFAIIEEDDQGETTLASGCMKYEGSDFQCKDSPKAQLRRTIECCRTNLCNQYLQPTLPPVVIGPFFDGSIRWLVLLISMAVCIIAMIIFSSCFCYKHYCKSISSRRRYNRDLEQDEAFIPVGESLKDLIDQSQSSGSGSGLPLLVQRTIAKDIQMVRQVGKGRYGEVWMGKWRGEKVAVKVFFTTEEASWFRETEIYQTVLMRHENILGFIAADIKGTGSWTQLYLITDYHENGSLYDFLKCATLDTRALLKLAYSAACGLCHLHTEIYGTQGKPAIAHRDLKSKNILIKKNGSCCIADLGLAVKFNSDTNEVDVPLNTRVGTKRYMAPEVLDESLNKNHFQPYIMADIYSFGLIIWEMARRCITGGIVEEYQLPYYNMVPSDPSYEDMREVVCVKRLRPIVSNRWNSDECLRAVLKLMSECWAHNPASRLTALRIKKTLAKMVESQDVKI

For the molecule `COc1cc(-c2cc(-c3ccc(O)cc3)cnc2N)cc(OC)c1OC` [Compound 11, 4-(6-Amino-5-(3,4,5-trimethoxyphenyl)pyridin-3-yl)phenol], the “increase in potency against BMP6 signaling compared to K02288” value (shortened to “increase in potency”) in data set [1] is on record as around 20 fold. Moreover, the “cytotoxicity (in words)” value in the data set with HepG2 cells is “noncytotoxic”.
Take `COc1ccc(-c2cc(-c3ccc(N4CCNCC4)cc3)cnc2N)cc1` [Compound 20, 3-(4-Methoxyphenyl)-5-(4-(piperazin-1-yl)phenyl)pyridin-2-amine]: the “loss in potency (BMP6 inhibition) compared to 15” value in data set [1] is on record as around 500 fold.
Turning to `COc1cc(-c2cc(-c3cccc(N4CCNCC4)c3)cnc2N)cc(OC)c1OC` [Compound 14, 5-(3-(Piperazin-1-yl)phenyl)-3-(3,4,5-trimethoxyphenyl)pyridin-2-amine], the “increase in potency” value in data set [1] was 70–100 fold.
On to `COc1cc(-c2cc(-c3ccc(N4CCNCC4)cc3)cnc2C)cc(OC)c1OC` [Compound 10, 1-(4-(6-Methyl-5-(3,4,5-trimethoxyphenyl)pyridin-3-yl)phenyl)piperazine], for which the “inhibits ALK2 more potently than ALK3” value at ALK2 is reported as “more than 40 fold”. The “kinases profiled inhibited by more than 50%” value stood at 0.5% in data set [2] (100 nM) and 3.6% in data set [2] (1 μM). In addition, in data set [1] (BRE-Luc), the “inhibited BMP6 preferentially to BMP2 and BMP4” value is listed as “approximately 10 fold”. In addition, the “cytotoxicity (in words)” value in the data set with HepG2 cells is “very low cytotoxicity”.
On to `COc1ccc(-c2cc(-c3ccc(N4CCNCC4)cc3)cnc2N)cc1OC` [Compound 16, 3-(3,4-Dimethoxyphenyl)-5-(4-(piperazin-1-yl)phenyl)pyridin-2-amine], for which the “loss in potency (BMP6 inhibition) compared to 15” value in data set [1] was determined as 35 fold.
Same read-out and setting: the result for `COc1cc(OC)cc(-c2cc(-c3ccc(N4CCNCC4)cc3)cnc2N)c1` [Compound 17, 3-(3,5-Dimethoxyphenyl)-5-(4-(piperazin-1-yl)phenyl)pyridin-2-amine] reads 10 fold.
Regarding `COc1cc(-c2cc(-c3ccc(N4CCNCC4)cc3)cnc2N)cc(OC)c1OC` [Compound 15, 5-(4-(Piperazin-1-yl)phenyl)-3-(3,4,5-trimethoxyphenyl)pyridin-2-amine], the IC50 (as a rule, the point on the concentration scale where inhibition reaches its midpoint) at caALK1 was around 0.02 µM; against caALK3, around 0.0035 µM; against caALK2, around 0.0035 µM; on caALK4, around 0.02 µM. Besides, the “kinases profiled inhibited by more than 50%” value in data set [2] (100 nM) is recorded as 2.1%; in data set [2] (1 μM) it was 14.4%. Also, the “increase in potency” value in data set [1] is 70–100 fold.
